Results on three compounds are retold here after US20170197910A1, “SUBSTITUTED VINYL AND ALKYNYL CYANOCYCLOALKANOLS AND VINYL AND ALKYNYL CYANOHETEROCYCLOALKANOLS AS ACTIVE AGENTS AGAINST ABIOTIC PLANT STRESS” (BAYER CROPSCIENCE AKTIENGESELLSCHAFT, priority 2014, published 2017).

The target of assay [1] is T1, phosphatase ABI1 via the co-regulator RCAR11/PYR1 (Arabidopsis thaliana, UniProt O49686+P49597).
T1 sequence (O49686 1-191): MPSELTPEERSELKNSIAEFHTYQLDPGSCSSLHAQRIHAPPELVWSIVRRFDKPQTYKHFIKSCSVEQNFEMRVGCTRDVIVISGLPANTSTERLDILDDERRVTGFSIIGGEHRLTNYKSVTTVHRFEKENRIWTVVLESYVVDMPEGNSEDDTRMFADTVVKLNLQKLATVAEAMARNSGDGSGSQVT
T1 sequence (P49597 1-434): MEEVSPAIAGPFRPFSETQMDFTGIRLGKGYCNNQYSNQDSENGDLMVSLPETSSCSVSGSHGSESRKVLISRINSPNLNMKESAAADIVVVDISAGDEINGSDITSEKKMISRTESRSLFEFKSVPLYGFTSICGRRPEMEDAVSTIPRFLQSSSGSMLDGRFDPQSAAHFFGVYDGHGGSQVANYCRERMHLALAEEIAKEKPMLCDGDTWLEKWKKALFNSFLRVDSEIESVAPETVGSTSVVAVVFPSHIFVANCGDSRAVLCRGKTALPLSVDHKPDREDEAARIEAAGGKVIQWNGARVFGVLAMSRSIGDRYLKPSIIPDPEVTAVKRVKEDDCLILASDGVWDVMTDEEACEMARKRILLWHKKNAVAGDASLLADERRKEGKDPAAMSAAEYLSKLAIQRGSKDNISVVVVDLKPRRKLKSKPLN
As to the kind of experiment: In vitro inhibition of phosphatase ABI1 via co-regulator RCAR11/PYR1, MUP dephosphorylation fluorescence assay. Format: biochemical. To be noted: concentration of 5 mM of the substance in DMSO and water; MUP substrate, 35° C., 20 minutes. An excerpt: Effects of the phytohormone abscisic acid (ABA) on the behaviour of plants under abiotic stress and the mechanism of action of ABA are described in the literature (cf. Abrams et al., WO97/23441, Cutler, Park et al. Science, 2009, 324, 1068; Grill et al. Science, 2009, 324, 1064; Tanokura et al. Biophysics, 2011, 7, 123; Schroeder et al. Plant J. 2010, 61, 290). Therefore, it is possible with the aid of a suitable in vitro test system to derive a correlation between the action of ABA and the stress response of a plant under abiotic stress. In the event of water deficiency (drought stress), plants form the phytohormone abscisic acid (ABA). […]
The assay described hereinafter utilizes the inhibition of the phosphatase ABI1 via the co-regulator RCAR11/PYR1 aus Arabidopsis thaliana. For the determination of activity, the dephosphorylation of 4-methylumbelliferyl phosphate (MUP) was measured at 460 nm. […]
Enzyme buffer mix and substrate mix were made up 5 minutes prior to the addition and warmed to a temperature of 35° C. […] Finally, a relative fluorescence measurement was made at 35° C. with a BMG Labtech “POLARstar Optima” microplate reader using a 340/10 nm excitation filter and a 460 nm emission filter. […]

A further assay deals with Zea mays. As to the kind of experiment: In vivo drought stress test on crop plants, spray application, visual scoring vs stressed control (ZEAMX). The arrangement: key: 0: no positive effect; 10: slight positive effect; 20: clear positive effect; 30: strong positive effect. The settings on record: dosage 250 g/ha, average score of 3 pots vs stressed control. On the procedure:
(§1) Seeds of monocotyledonous and dicotyledonous crop plants were sown in sandy loam in plastic pots, covered with soil or sand and cultivated in a greenhouse under good growth conditions. The trial plants were treated at the early leaf stage (BBCH10-BBCH13). To assure uniform water supply before commencement of stress, the potted plants were supplied with water by dam irrigation prior to substance application. The inventive compounds, formulated in the form of wettable powders (WP), were sprayed onto the green parts of the plants as an aqueous suspension at an equivalent water application rate of 600 I/ha with addition of 0.2% wetting agent (e.g. agrotin). Substance application was followed immediately by stress treatment of the plants. […] Once this juncture had been reached, the appearance of the plants treated with test substances was recorded in comparison to the stressed control plants by the following categories: • 0 no positive effect • 10 slight positive effect • 20 clear positive effect • 30 strong positive effect In order to rule out any influence on the effects observed by any fungicidal or insecticidal action of the test compounds, it was additionally ensured that the tests proceeded without fungal infection or insect infestation. In each test, for each crop and dosage, plants in 3 pots were treated and evaluated separately. […]

The next assay deals with Triticum aestivum. As to the kind of experiment: In vivo drought stress test on crop plants, spray application, visual scoring vs stressed control (TRZAS). The settings on record: dosage 250 g/ha, average score of 3 pots vs stressed control. The arrangement: key: 0: no positive effect; 10: slight positive effect; 20: clear positive effect; 30: strong positive effect. On the procedure:
as §1

As for `CC(C)C(O)(C#Cc1ccccc1C(=O)O)C1(C#N)CC1` (stereo not shown) [I.1-127, 2-[3-(1-Cyanocyclopropyl)-3-hydroxy-4-methylpent-1-yn-1-yl]benzoic acid], the ABI1 inhibition entry in assay [1] was “+++ (90%>inhibition≧70%)”.

As to `COC(=O)c1ccccc1C#CC(O)(C(C)C)C1(C#N)CC1` (stereo not shown) [I.1-130, Methyl 2-[3-(1-cyanocyclopropyl)-3-hydroxy-4-methylpent-1-yn-1-yl]benzoate], the “Effect (ZEAMX)” value with Zea mays was found to be 20. Also, the “Effect (TRZAS)” value in the assay on Triticum aestivum stood at 20.

Regarding `CC1=CC(=O)CC(C)(C)[C@@]1(O)/C=C/C(C)=C\C(=O)O` [abscisic acid, reference compound], the ABI1 inhibition entry in assay [1] is recorded as “++++ (inhibition≧90%)”.
